Source: patent US12780800B1, “Triazole-pyridinyl substituted azacyclohexyl acetic acid compounds as LPA receptor antagonists” (Viva Star Biosciences Limited, priority 2021, dated 2022)

molecular target: T1, LPA1 (Homo sapiens, UniProt Q92633); assay: LPA1 calcium flux assay (LPA1 functional antagonist assay); type: cell-based; conditions: PathHunter CHO-K1 EDG2 β-Arrestin cell line; calcium indicator dye; stimulated with EC80 concentration of LPA; FLIPR Tetra
T1 construct: ProLink (PK) beta-galactosidase enzyme-fragment tag; host or cells: CHO-K1
Outline: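 The LPA1 antagonist readout was intracellular calcium flux, and IC50 values were calculated from it. Plates stood 30 min at RT after compound addition. Cells, grown overnight, had first taken up calcium dye over 45 min at 37 °C.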

T1 sequence (Q92633 whole entry, the tested form may be a part): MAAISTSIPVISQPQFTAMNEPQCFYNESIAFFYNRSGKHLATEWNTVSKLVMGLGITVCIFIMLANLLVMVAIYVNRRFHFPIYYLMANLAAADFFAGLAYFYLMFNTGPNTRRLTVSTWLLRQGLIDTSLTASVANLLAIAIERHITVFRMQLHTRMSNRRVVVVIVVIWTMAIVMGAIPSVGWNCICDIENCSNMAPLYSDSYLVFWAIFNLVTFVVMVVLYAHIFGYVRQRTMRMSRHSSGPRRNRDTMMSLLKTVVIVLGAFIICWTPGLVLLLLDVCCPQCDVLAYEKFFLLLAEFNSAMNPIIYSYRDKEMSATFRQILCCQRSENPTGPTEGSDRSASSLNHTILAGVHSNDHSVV

SMILES	IC50
CCc1nc(-c2nnn(C)c2Cn2ncc(CC3CC3)n2)ccc1N1C[C@@H](CC(=O)O)CC(F)(F)C1 [Example 130, (S)-2-(1-(6-(5-((4-(cyclopropylmethyl)-2H-1,2,3-triazol-2-yl)methyl)-1-methyl-1H-1,2,3-triazol-4-yl)-2-ethylpyridin-3-yl)-5,5-difluoropiperidin-3-yl)acetic acid]	< 100 nM
CCc1nc(-c2nnn(C)c2CN2C[C@H](CC3CC3)NC2=O)ccc1N1C[C@@H](CC(=O)O)CC(F)(F)C1 [Example 65, 2-((S)-1-(6-(5-(((S)-4-(cyclopropylmethyl)-2-oxoimidazolidin-1-yl)methyl)-1-methyl-1H-1,2,3-triazol-4-yl)-2-ethylpyridin-3-yl)-5,5-difluoropiperidin-3-yl)acetic acid]	> 5000 nM
CCCc1ccc(=O)n(Cc2c(-c3ccc(N4CCCC(CC(=O)O)C4=O)c(CC)n3)nnn2C)c1 (single isomer, unassigned) [Example 52, (R) or (S)-2-(1-(2-ethyl-6-(1-methyl-5-((2-oxo-5-propylpyridin-1(2H)-yl)methyl)-1H-1,2,3-triazol-4-yl)pyridin-3-yl)-2-oxopiperidin-3-yl)acetic acid]	500 to 5000 nM
CCCc1cnc(=O)n(Cc2c(-c3ncc(N4C[C@@H](CC(=O)O)CC(F)(F)C4)c(CC)n3)cnn2C)c1 [Example 38, (S)-2-(1-(4-ethyl-2-(1-methyl-5-((2-oxo-5-propylpyrimidin-1(2H)-yl)methyl)-1H-pyrazol-4-yl)pyrimidin-5-yl)-5,5-difluoropiperidin-3-yl)acetic acid]	> 5000 nM
CCCc1cnn(Cc2c(-c3ccc(N4C[C@@H](CC(=O)O)CC(F)(F)C4)c(C)n3)nnn2C)c(=O)c1 [Example 33, (S)-2-(5,5-difluoro-1-(2-methyl-6-(1-methyl-5-((6-oxo-4-propylpyridazin-1(6H)-yl)methyl)-1H-1,2,3-triazol-4-yl)pyridin-3-yl)piperidin-3-yl)acetic acid]	> 5000 nM
CCCc1ccc(=O)n(Cc2c(-c3ccc(CN4CC(C(=O)O)CC(F)(F)C4)c(C)n3)nnn2C)c1 (single isomer, unassigned) [Example 156, (S) or (R)-5,5-difluoro-1-((2-methyl-6-(1-methyl-5-((2-oxo-5-propylpyridin-1(2H)-yl)methyl)-1H-1,2,3-triazol-4-yl)pyridin-3-yl)methyl)piperidine-3-carboxylic acid]	100 to 500 nM
CCCc1ccc(=O)n(Cc2c(-c3ccc(CN4CC(C(=O)O)CC(F)(F)C4)c(CC)n3)nnn2C)c1 (single isomer, unassigned) [Example 150, (R) or (S)-1-((2-ethyl-6-(1-methyl-5-((2-oxo-5-propylpyridin-1(2H)-yl)methyl)-1H-1,2,3-triazol-4-yl)pyridin-3-yl)methyl)-5,5-difluoropiperidine-3-carboxylic acid]	100 to 500 nM
CCc1nc(-c2nnn(C)c2COc2nccc(C3CCC3)n2)ccc1CN1CC(C(=O)O)CC(F)(F)C1 (single isomer, unassigned) [Example 153, (R) or (S)-1-((6-(5-(((4-cyclobutylpyrimidin-2-yl)oxy)methyl)-1-methyl-1H-1,2,3-triazol-4-yl)-2-ethylpyridin-3-yl)methyl)-5,5-difluoropiperidine-3-carboxylic acid]	500 to 5000 nM
CCCN(C)C(=O)OCc1c(-c2ccc(N3C[C@@H](CC(=O)O)CC(F)(F)C3)c(C)n2)nnn1C [Example 139, (S)-2-(5,5-difluoro-1-(2-methyl-6-(1-methyl-5-(((methyl(propyl)carbamoyl)oxy)methyl)-1H-1,2,3-triazol-4-yl)pyridin-3-yl)piperidin-3-yl)acetic acid]	100 to 500 nM
Cc1nc(-c2nnn(C)c2Cn2ccc(CC3CC3)c(C)c2=O)ccc1N1CC(CC(=O)O)CC(F)(F)C1 (stereo in doubt) [Example 3, (S)-2-(1-(6-(5-((4-(cyclopropylmethyl)-3-methyl-2-oxopyridin-1(2H)-yl)methyl)-1-methyl-1H-1,2,3-triazol-4-yl)-2-methylpyridin-3-yl)-5,5-difluoropiperidin-3-yl)acetic acid]	500 to 5000 nM
CCc1nc(-c2nnn(C)c2Cn2ccc(CC3CC3)c(C)c2=O)ccc1N1C[C@@H](CC(=O)O)CC(F)(F)C1 [Example 10, (S)-2-(1-(6-(5-((4-(cyclopropylmethyl)-3-methyl-2-oxopyridin-1(2H)-yl)methyl)-1-methyl-1H-1,2,3-triazol-4-yl)-2-ethylpyridin-3-yl)-5,5-difluoropiperidin-3-yl)acetic acid]	100 to 500 nM
CCCc1ccnn(CCc2c(-c3ccc(N4CC(CC(=O)O)CC(F)(F)C4)c(C)n3)nnn2C)c1=O (stereo not shown) [Example 44, 2-[5,5-difluoro-1-(2-methyl-6-{1-methyl-5-[2-(6-oxo-5-propyl-1,6-dihydropyridazin-1-yl)ethyl]-1H-1,2,3-triazol-4-yl}pyridin-3-yl)piperidin-3-yl]acetic acid]	> 5000 nM
CCCc1cc(=O)n(Cc2c(-c3ccc(N4C[C@@H](CC(=O)O)CC(F)(F)C4)c(CC)n3)nnn2C)cn1 [Example 31]	> 5000 nM
